Format in all cases: biochemical
Test [1] deals with T1, GST-CLK2cd (CLK2 catalytic domain) (Homo sapiens, UniProt P49760).
T1 construct: cDNA encoding the CLK2 catalytic domain (CLK2cd, amino acids 140–496); made in house; host or cells: Escherichia coli BL21(DE3)-R3-lambda-PPase
The experiment in a line: High-throughput screen, Kinase-Glo in vitro kinase assay. Conditions: compound at 10 μM; read-out: percentage of inhibition on CLK2 (primary screen). As for the experimental part: A small molecule inhibitor library consisting of 1600 compounds was obtained from LIFE Chemicals (Kiev, Ukraine). These compounds are part of the CUTE kinase collection that was predicted by in silico profiling against a panel of targets and includes potent kinase inhibitor compounds.[16] Compounds were dissolved as 10 mM stocks in DMSO and stored at room temperature, in the presence of 5% humidity and 5% oxygen in the dark in a Roylan Storage Pod system. Compounds were dispensed into white 384-well plates using the Labcyte Echo520 instrument at a final concentration of 10 μM. Next, 5 μL of 144.92 nM purified GST-CLK2cd in kinase assay buffer A was added to the compounds, incubated for 10 min at room temperature prior to addition of 5 μL of a 2 μM ATP/10 μM S6K peptide mixture, and incubated again for 60 min at room temperature. Subsequently, 10 μL of Kinase-Glo was added to the wells, and the plates were analyzed after 10 min on the Envision II multilabel plate reader (PerkinElmer). […] The percentage of inhibition is equal to 100 – [(total ATP before assay – remaining ATP in assay with compound)/(total ATP before assay – remaining ATP in assay with DMSO) × 100].
Background: In Kinase-Glo more light means more ATP remaining.

The next test has as its system firefly luciferase. The experiment in a line: Luciferase inhibition assay (Kinase-Glo, no kinase). Conditions: compound at 10 μM. The method, then:
For analysis of luciferase inhibition, 10 μL of luciferase reagent (Kinase-Glo, Promega) was added to 10 μL of a mixture consisting of 1 μM ATP and 5 μM S6K and 10 μM compound (potential kinase inhibitor) in buffer A in the absence of kinase and incubated for 10 min at room temperature in a white well plate before the luminescence was read. The percentage of inhibition is equal to (luminescence in the assay without compound – luminescence in the assay with compound)/(luminescence in the assay without compound) × 100.

Another test deals with CLK2 (Homo sapiens, UniProt P49760). The experiment in a line: Kinase inhibition assay, IC50. The settings on record: relative to 3A5. More on the design: cDNA encoding the CLK2 catalytic domain (CLK2cd, amino acids 140–496); made in house; host or cells: Escherichia coli BL21(DE3)-R3-lambda-PPase.
Another test has as its target T2, CLK3 (Homo sapiens, UniProt P49761).
T2 construct: The catalytic domains of CLK1, CLK2, CLK3, CLK2K193A, and CLK2K193A/D290A were tagged with GST; GST (N); made in house
Nature of the test: Kinase inhibition assay, IC50.

Experimental findings from PMC4730229, “Benzobisthiazoles Represent a Novel Scaffold for Kinase Inhibitors of CLK Family Members” (Biochemistry, 2015) are described below.

T1 sequence (P49760 140-496): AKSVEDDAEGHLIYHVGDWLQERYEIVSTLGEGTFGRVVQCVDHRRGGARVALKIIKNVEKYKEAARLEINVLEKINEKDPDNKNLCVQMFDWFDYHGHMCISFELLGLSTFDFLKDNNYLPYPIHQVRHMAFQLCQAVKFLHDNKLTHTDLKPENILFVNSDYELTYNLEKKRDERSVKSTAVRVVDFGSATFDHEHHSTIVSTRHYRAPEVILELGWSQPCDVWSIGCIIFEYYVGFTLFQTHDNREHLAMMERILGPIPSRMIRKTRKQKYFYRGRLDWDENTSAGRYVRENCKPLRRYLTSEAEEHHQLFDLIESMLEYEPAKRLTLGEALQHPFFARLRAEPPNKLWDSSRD
T2 sequence (P49761 156-472 limits assumed): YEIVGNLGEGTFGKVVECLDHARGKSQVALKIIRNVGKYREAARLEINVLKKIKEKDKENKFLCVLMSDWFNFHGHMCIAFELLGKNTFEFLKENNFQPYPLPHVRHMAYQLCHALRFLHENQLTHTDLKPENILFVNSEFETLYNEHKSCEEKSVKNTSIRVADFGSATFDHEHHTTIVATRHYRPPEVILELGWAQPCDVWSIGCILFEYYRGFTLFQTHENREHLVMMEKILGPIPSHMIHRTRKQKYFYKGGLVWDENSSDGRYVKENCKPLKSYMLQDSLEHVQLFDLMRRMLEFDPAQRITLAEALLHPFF
Sequence of CLK2 (P49760 140-496): as the sequence (P49760 140-496) above

With `O=C(Nc1nc2c(s1)CCCC2)C1CC1` [1C11], the inhibition (usually the percentage by which the read-out fell short of the control) at 10 µM in test [1] came out at 50%. In addition, the “% inhibition of luciferase” value in the test with firefly luciferase was 8.1 ± 1.8%.
Turning to `CC(=O)Nc1ccc(-c2nc3c(Cl)cccc3[nH]2)cc1` [2A4], the inhibition at 10 µM in test [1] amounted to 51%. In addition, in the test on firefly luciferase, the “% inhibition of luciferase” value is reported as 17.5 ± 4.5%.
As to `O=C(Nc1cccc(-c2nc3ccccc3[nH]2)c1)c1ccc2ncsc2c1` [3B5], in test [1], the inhibition at 10 µM amounted to 65%. In addition, the “% inhibition of luciferase” value in the test on firefly luciferase stood at 26 ± 1.1%.
Consider `O=C(NCCO)c1ccc(Nc2nc(-c3ccccc3)c3cc(Cl)ccc3n2)cc1` [4B9], for which the inhibition at 10 µM in test [1] worked out at 56%. Moreover, the “% inhibition of luciferase” value in the test on firefly luciferase was determined as 20.4 ± 1.6%.
On the same counts, the results for `Cc1nc2c(ccc3nc(NC(=O)c4cccs4)sc32)s1` [4G9] are 50% and 47.8 ± 2.1%.
For `Fc1ccc(-c2csc3ncnc(NCc4ccccc4)c23)cc1` [5E11], in that order: 58% and 26.4 ± 2.4%.
Take `CSc1nc2ccc3nc(NC(=O)c4ccc(S(=O)(=O)N5CCOCC5)cc4)sc3c2s1` [5F4]: in test [1], the inhibition at 10 µM worked out at 55%. Also, the “decrease of inhibition against CLK2 compared to 3A5” value on CLK2 was 2–3 fold. In addition, the “% inhibition of luciferase” value in the test with firefly luciferase was determined as 23.6 ± 1.5%.
On to `COc1cc(C(=O)Nc2nc3ccc(S(=O)(=O)N4CCCCC4)cc3s2)cc(OC)c1OC` [7C4], for which the inhibition at 10 µM in test [1] stood at 53%. The “% inhibition of luciferase” value with firefly luciferase is 19.6 ± 3.6%.
On the same counts, the results for `CC(=O)Nc1nc2cc3c(cc2s1)OCO3` [8A6] are 53% and 18.8 ± 1.6%.
As for `COCCNC(=O)c1cccc(Nc2nc(-c3ccccc3)c3cc(Cl)ccc3n2)c1` [8B5], the inhibition at 10 µM in test [1] was determined as 52%. Also, the “% inhibition of luciferase” value in the test on firefly luciferase stood at 0 ± 6.2%.
For the compound `O=C(O)c1ccc(C(=O)Nc2ccccc2-c2nc3ccccc3[nH]2)cc1` [9C6], the inhibition at 10 µM in test [1] amounted to 58%. Further, in the test on firefly luciferase, the “% inhibition of luciferase” value worked out at 5.6 ± 4.0%.
On the same counts, the results for `COc1ccc(Cc2cnc(NC(=O)c3cc(C)oc3C)s2)cc1` [13D3] are 51% and 0 ± 2.4%.
With `COc1ccccc1C(=O)Nc1nc2ncccc2cc1-c1ccccc1` [17F6], in test [1], the inhibition at 10 µM came to 53%. In the test on firefly luciferase, the “% inhibition of luciferase” value stood at 21.9 ± 0.2%.
For `CC1(C)Cc2cccc(OCC(=O)Nc3cccc(-c4cc[nH]n4)c3)c2O1` [18B6], in that order: 58% and 17.5 ± 2.2%.
In the case of `O=C(Nc1cccc(-c2nc3ccccc3[nH]2)c1)c1ccc2nsnc2c1` [18H3], in test [1], the inhibition at 10 µM was determined as 56%. The “% inhibition of luciferase” value in the test with firefly luciferase amounted to 21.1 ± 2.2%.
`O=C1N=C(NCc2cccs2)S/C1=C\c1ccc2ncccc2c1` [NR9, (5Z)-5-(quinolin-6-ylmethylidene)-2-[(thiophen-2-ylmethyl)amino]-1,3-thiazol-4(5H)-one]: the IC50 – broadly, the midpoint of a concentration-inhibition curve – against CLK3 was more than 3 µM.
In the case of `CCN1/C(=C/C(C)=O)Sc2ccc(OC)cc21` [TG003, reference compound], the inhibition at 10 µM in test [1] is 63%. For the same compound, the “% inhibition of luciferase” value with firefly luciferase was 13.4 ± 1.8%.
